Source: ChEMBL document CHEMBL4184242, “Synthesis and antibacterial studies of teixobactin analogues with non-isostere substitution of enduracididine” (2018)
Converted amounts (≈) assume the structure as drawn.

Assays:
Staphylococcus aureus [1] = test: Antibacterial activity against methicillin-resistant Staphylococcus aureus isolate SA1114 by CLSI M100-S17 protocol based broth dilution method; format: functional
Staphylococcus aureus [2] = test: Antibacterial activity against methicillin-susceptible Staphylococcus aureus ATCC 29213 by CLSI M100-S17 protocol based broth dilution method; format: functional

Row | SMILES | MIC (Staphylococcus aureus [1]) | MIC (Staphylococcus aureus [2])
1 | CC[C@@H](C)[C@@H](NC(=O)[C@@H](CCC(N)=O)NC(=O)[C@H](CO)NC(=O)[C@@H](NC(=O)[C@@H](Cc1ccccc1)NC)[C@@H](C)CC)C(=O)N[C@H](C(=O)N[C@@H](CO)C(=O)N[C@H]1C(=O)N[C@@H](C)C(=O)NCC(=O)N[C@@H]([C@@H](C)CC)C(=O)O[C@H]1C)[C@@H](C)CC | 8 to 16 µg/mL (≈ 6.98 to 14 µM) | 2 µg/mL (≈ 1.75 µM)
2 | CC[C@@H](C)[C@@H](NC(=O)[C@@H](CCC(N)=O)NC(=O)[C@H](CO)NC(=O)[C@@H](NC(=O)[C@@H](Cc1ccccc1)NC)[C@@H](C)CC)C(=O)N[C@H](C(=O)N[C@@H](CO)C(=O)N[C@H]1C(=O)N[C@@H](C)C(=O)N[C@@H](Cc2ccc(OC)cc2)C(=O)N[C@@H]([C@@H](C)CC)C(=O)O[C@H]1C)[C@@H](C)CC | ≥ 32 µg/mL | 1 µg/mL (≈ 0.79 µM)
3 | CC[C@@H](C)[C@@H](NC(=O)[C@@H](CCC(N)=O)NC(=O)[C@H](CO)NC(=O)[C@@H](NC(=O)[C@@H](Cc1ccccc1)NC)[C@@H](C)CC)C(=O)N[C@H](C(=O)N[C@@H](CO)C(=O)N[C@H]1C(=O)N[C@@H](C)C(=O)N[C@@H](Cc2ccc([N+](=O)[O-])cc2)C(=O)N[C@@H]([C@@H](C)CC)C(=O)O[C@H]1C)[C@@H](C)CC | 4 µg/mL (≈ 3.12 µM) | 0.5 µg/mL (≈ 0.39 µM)
4 | CCCC[C@@H]1NC(=O)[C@H](C)NC(=O)[C@H](NC(=O)[C@H](CO)NC(=O)[C@@H](NC(=O)[C@H](NC(=O)[C@@H](CCC(N)=O)NC(=O)[C@H](CO)NC(=O)[C@@H](NC(=O)[C@@H](Cc2ccccc2)NC)[C@@H](C)CC)[C@H](C)CC)[C@@H](C)CC)[C@H](C)OC(=O)[C@H]([C@@H](C)CC)NC1=O | 2 µg/mL (≈ 1.66 µM) | 0.5 µg/mL (≈ 0.416 µM)
5 | CC[C@@H](C)[C@@H](NC(=O)[C@@H](CCC(N)=O)NC(=O)[C@H](CO)NC(=O)[C@@H](NC(=O)[C@@H](Cc1ccccc1)NC)[C@@H](C)CC)C(=O)N[C@H](C(=O)N[C@@H](CO)C(=O)N[C@H]1C(=O)N[C@@H](C)C(=O)N[C@@H](Cc2ccccc2)C(=O)N[C@@H]([C@@H](C)CC)C(=O)O[C@H]1C)[C@@H](C)CC | 4 µg/mL (≈ 3.24 µM) | 1 µg/mL (≈ 0.809 µM)
6 | CC[C@@H](C)[C@@H](NC(=O)[C@@H](CCC(N)=O)NC(=O)[C@H](CO)NC(=O)[C@@H](NC(=O)[C@@H](Cc1ccccc1)NC)[C@@H](C)CC)C(=O)N[C@H](C(=O)N[C@@H](CO)C(=O)N[C@H]1C(=O)N[C@@H](C)C(=O)N[C@@H](Cc2ccc(O)c([N+](=O)[O-])c2)C(=O)N[C@@H]([C@@H](C)CC)C(=O)O[C@H]1C)[C@@H](C)CC | 4 µg/mL (≈ 3.09 µM) | 1 µg/mL (≈ 0.771 µM)
7 | CC[C@@H](C)[C@@H](NC(=O)[C@@H](CCC(N)=O)NC(=O)[C@H](CO)NC(=O)[C@@H](NC(=O)[C@@H](Cc1ccccc1)NC)[C@@H](C)CC)C(=O)N[C@H](C(=O)N[C@@H](CO)C(=O)N[C@H]1C(=O)N[C@@H](C)C(=O)N[C@@H](CC(N)=O)C(=O)N[C@@H]([C@@H](C)CC)C(=O)O[C@H]1C)[C@@H](C)CC | 16 µg/mL (≈ 13.3 µM) | 8 µg/mL (≈ 6.65 µM)
8 | CC[C@@H](C)[C@@H](NC(=O)[C@@H](CCC(N)=O)NC(=O)[C@H](CO)NC(=O)[C@@H](NC(=O)[C@@H](Cc1ccccc1)NC)[C@@H](C)CC)C(=O)N[C@H](C(=O)N[C@@H](CO)C(=O)N[C@H]1C(=O)N[C@@H](C)C(=O)N[C@@H](CCC(=O)O)C(=O)N[C@@H]([C@@H](C)CC)C(=O)O[C@H]1C)[C@@H](C)CC | ≥ 32 µg/mL | ≥ 32 µg/mL
9 | CC[C@@H](C)[C@@H](NC(=O)[C@@H](CCC(N)=O)NC(=O)[C@H](CO)NC(=O)[C@@H](NC(=O)[C@@H](Cc1ccccc1)NC)[C@@H](C)CC)C(=O)N[C@H](C(=O)N[C@@H](CO)C(=O)N[C@H]1C(=O)N[C@@H](C)C(=O)N[C@@H](C(C)C)C(=O)N[C@@H]([C@@H](C)CC)C(=O)O[C@H]1C)[C@@H](C)CC | 2 µg/mL (≈ 1.68 µM) | 0.5 µg/mL (≈ 0.421 µM)
10 | CC[C@@H](C)[C@@H](NC(=O)[C@@H](CCC(N)=O)NC(=O)[C@H](CO)NC(=O)[C@@H](NC(=O)[C@@H](Cc1ccccc1)NC)[C@@H](C)CC)C(=O)N[C@H](C(=O)N[C@@H](CO)C(=O)N[C@H]1C(=O)N[C@@H](C)C(=O)N[C@@H](Cc2ccc(C)cc2)C(=O)N[C@@H]([C@@H](C)CC)C(=O)O[C@H]1C)[C@@H](C)CC | ≥ 32 µg/mL | 1 µg/mL (≈ 0.8 µM)
11 | CC[C@@H](C)[C@@H](NC(=O)[C@@H](CCC(N)=O)NC(=O)[C@H](CO)NC(=O)[C@@H](NC(=O)[C@@H](Cc1ccccc1)NC)[C@@H](C)CC)C(=O)N[C@H](C(=O)N[C@@H](CO)C(=O)N[C@H]1C(=O)N[C@@H](C)C(=O)N[C@@H](CC(=O)O)C(=O)N[C@@H]([C@@H](C)CC)C(=O)O[C@H]1C)[C@@H](C)CC | ≥ 32 µg/mL | ≥ 32 µg/mL
12 | CC[C@@H](C)[C@@H](NC(=O)[C@@H](CCC(N)=O)NC(=O)[C@H](CO)NC(=O)[C@@H](NC(=O)[C@@H](Cc1ccccc1)NC)[C@@H](C)CC)C(=O)N[C@H](C(=O)N[C@@H](CO)C(=O)N[C@H]1C(=O)N[C@@H](C)C(=O)N[C@@H](Cc2ccc(Cl)cc2)C(=O)N[C@@H]([C@@H](C)CC)C(=O)O[C@H]1C)[C@@H](C)CC | 4 µg/mL (≈ 3.15 µM) | 1 µg/mL (≈ 0.787 µM)
13 | CC[C@@H](C)[C@@H](NC(=O)[C@@H](CCC(N)=O)NC(=O)[C@H](CO)NC(=O)[C@@H](NC(=O)[C@@H](Cc1ccccc1)NC)[C@@H](C)CC)C(=O)N[C@H](C(=O)N[C@@H](CO)C(=O)N[C@H]1C(=O)N[C@@H](C)C(=O)N[C@@H](C)C(=O)N[C@@H]([C@@H](C)CC)C(=O)O[C@H]1C)[C@@H](C)CC | 8 µg/mL (≈ 6.9 µM) | 2 µg/mL (≈ 1.73 µM)
14 | CC[C@@H](C)[C@@H](NC(=O)[C@@H](CCC(N)=O)NC(=O)[C@H](CO)NC(=O)[C@@H](NC(=O)[C@@H](Cc1ccccc1)NC)[C@@H](C)CC)C(=O)N[C@H](C(=O)N[C@@H](CO)C(=O)N[C@H]1C(=O)N[C@@H](C)C(=O)N[C@@H](CO)C(=O)N[C@@H]([C@@H](C)CC)C(=O)O[C@H]1C)[C@@H](C)CC | 16 µg/mL (≈ 13.6 µM) | 16 µg/mL (≈ 13.6 µM)
15 | CC[C@@H](C)[C@@H](NC(=O)[C@@H](CCC(N)=O)NC(=O)[C@H](CO)NC(=O)[C@@H](NC(=O)[C@@H](Cc1ccccc1)NC)[C@@H](C)CC)C(=O)N[C@H](C(=O)N[C@@H](CO)C(=O)N[C@H]1C(=O)N[C@@H](C)C(=O)N2CCC[C@H]2C(=O)N[C@@H]([C@@H](C)CC)C(=O)O[C@H]1C)[C@@H](C)CC | ≥ 32 µg/mL | ≥ 32 µg/mL
16 | CC[C@@H](C)[C@@H](NC(=O)[C@@H](CCC(N)=O)NC(=O)[C@H](CO)NC(=O)[C@@H](NC(=O)[C@@H](Cc1ccccc1)NC)[C@@H](C)CC)C(=O)N[C@H](C(=O)N[C@@H](CO)C(=O)N[C@H]1C(=O)N[C@@H](C)C(=O)N[C@@H](Cc2ccc(F)cc2)C(=O)N[C@@H]([C@@H](C)CC)C(=O)O[C@H]1C)[C@@H](C)CC | 4 µg/mL (≈ 3.19 µM) | 0.5 µg/mL (≈ 0.399 µM)
17 | CC[C@@H](C)[C@@H](NC(=O)[C@@H](CCC(N)=O)NC(=O)[C@H](CO)NC(=O)[C@@H](NC(=O)[C@@H](Cc1ccccc1)NC)[C@@H](C)CC)C(=O)N[C@H](C(=O)N[C@@H](CO)C(=O)N[C@H]1C(=O)N[C@@H](C)C(=O)N[C@@H](CCSC)C(=O)N[C@@H]([C@@H](C)CC)C(=O)O[C@H]1C)[C@@H](C)CC | 1 µg/mL (≈ 0.82 µM) | 0.25 µg/mL (≈ 0.205 µM)
18 | CC[C@@H](C)[C@@H](NC(=O)[C@@H](CCC(N)=O)NC(=O)[C@H](CO)NC(=O)[C@@H](NC(=O)[C@@H](Cc1ccccc1)NC)[C@@H](C)CC)C(=O)N[C@H](C(=O)N[C@@H](CO)C(=O)N[C@H]1C(=O)N[C@@H](C)C(=O)N[C@@H]([C@@H](C)O)C(=O)N[C@@H]([C@@H](C)CC)C(=O)O[C@H]1C)[C@@H](C)CC | 16 µg/mL (≈ 13.5 µM) | 8 µg/mL (≈ 6.73 µM)
19 | CC[C@@H](C)[C@@H](NC(=O)[C@@H](CCC(N)=O)NC(=O)[C@H](CO)NC(=O)[C@@H](NC(=O)[C@@H](Cc1ccccc1)NC)[C@@H](C)CC)C(=O)N[C@H](C(=O)N[C@@H](CO)C(=O)N[C@H]1C(=O)N[C@@H](C)C(=O)N[C@H](CCCCN)C(=O)N[C@@H]([C@@H](C)CC)C(=O)O[C@H]1C)[C@@H](C)CC | ≥ 32 µg/mL | ≥ 32 µg/mL
20 | CC[C@@H](C)[C@@H](NC(=O)[C@@H](CCC(N)=O)NC(=O)[C@H](CO)NC(=O)[C@@H](NC(=O)[C@@H](Cc1ccccc1)NC)[C@@H](C)CC)C(=O)N[C@H](C(=O)N[C@@H](CO)C(=O)N[C@H]1C(=O)N[C@@H](C)C(=O)N[C@@H](CC(C)C)C(=O)N[C@@H]([C@@H](C)CC)C(=O)O[C@H]1C)[C@@H](C)CC | 2 µg/mL (≈ 1.66 µM) | 0.5 µg/mL (≈ 0.416 µM)
21 | CC[C@@H](C)[C@@H](NC(=O)[C@@H](CCC(N)=O)NC(=O)[C@H](CO)NC(=O)[C@@H](NC(=O)[C@@H](Cc1ccccc1)NC)[C@@H](C)CC)C(=O)N[C@H](C(=O)N[C@@H](CO)C(=O)N[C@H]1C(=O)N[C@@H](C)C(=O)N[C@@H](Cc2ccc(Br)cc2)C(=O)N[C@@H]([C@@H](C)CC)C(=O)O[C@H]1C)[C@@H](C)CC | ≥ 32 µg/mL | 2 µg/mL (≈ 1.52 µM)
22 | CC[C@@H](C)[C@@H](NC(=O)[C@@H](CCC(N)=O)NC(=O)[C@H](CO)NC(=O)[C@@H](NC(=O)[C@@H](Cc1ccccc1)NC)[C@@H](C)CC)C(=O)N[C@H](C(=O)N[C@@H](CO)C(=O)N[C@H]1C(=O)N[C@@H](C)C(=O)N[C@@H](CCC(N)=O)C(=O)N[C@@H]([C@@H](C)CC)C(=O)O[C@H]1C)[C@@H](C)CC | 16 µg/mL (≈ 13.2 µM) | 16 µg/mL (≈ 13.2 µM)
23 | CC[C@@H](C)[C@@H](NC(=O)[C@@H](CCC(N)=O)NC(=O)[C@H](CO)NC(=O)[C@@H](NC(=O)[C@@H](Cc1ccccc1)NC)[C@@H](C)CC)C(=O)N[C@H](C(=O)N[C@@H](CO)C(=O)N[C@H]1C(=O)N[C@@H](C)C(=O)NC(C)(C)C(=O)N[C@@H]([C@@H](C)CC)C(=O)O[C@H]1C)[C@@H](C)CC | ≥ 32 µg/mL | ≥ 32 µg/mL
24 | CC[C@@H](C)[C@@H](NC(=O)[C@@H](CCC(N)=O)NC(=O)[C@H](CO)NC(=O)[C@@H](NC(=O)[C@@H](Cc1ccccc1)NC)[C@@H](C)CC)C(=O)N[C@H](C(=O)N[C@@H](CO)C(=O)N[C@H]1C(=O)N[C@@H](C)C(=O)N[C@@H](Cc2ccc(O)cc2)C(=O)N[C@@H]([C@@H](C)CC)C(=O)O[C@H]1C)[C@@H](C)CC | 8 µg/mL (≈ 6.39 µM) | 2 µg/mL (≈ 1.6 µM)
